Laboratory results taken from US20140248212A1, “NON-IMMUNOGENIC POSITRON EMISSION TOMOGRAPHY REPORTER GENE SYSTEMS” (THE REGENTS OF THE UNIVERSITY OF CALIFORNIA, priority 2011, published 2014).

What was measured:
[1] = system: TK2-L109F-expressing L1210 cells; experiment: L-18F-FMAU uptake assay, transduced L1210 cells (TK2-L109F); format: cell-based, murine; details: in the presence of 5 μM D-dT
Description: The L1210 cell line (see, e.g. Jordheim, L. P., et al. (2004) Clin. Cancer Res. 10, 5614-5621) was a gift. Cells were cultured at 5% v/v CO2 and 37° C. in RPMI supplemented with 5% v/v FCS. Murine stem cell virus (pMSCV)-based helper-free retroviruses encoding the TK2 mutants (or sr39tk), an internal ribosomal entry site, and the yellow fluorescent protein (YFP) were produced by transient co-transfection of the amphotrophic retrovirus packaging cell line Phoenix (American Type Culture Collection, SD 3443) (see, e.g. Hawley, R. G., et al. (1994) Gene. Ther. 1, 136-138). L1210 cells underwent spinfection with the pMSCV-TK2 mutants-internal ribosomal entry site-YFP retrovirus with 2 μg/ml Polybrene (1000×g, 120 min, 37° C.). L1210 cells expressing various PRGs, (L1210-PRG) were FACS-sorted to ensure that each population had equivalent levels of PRG expression.
L1210 cells transduced with the indicated PET reporter genes (L1210-PRG) were seeded at a density of 500,000 cells/well in 24-well plates. 5 μCi of L-^18F-FMAU were added to the L1210-PRG cells simultaneously with the indicated amounts of D-thymidine (D-dT) at a final volume of 1 ml/well. After 1 h at 37° C., cells were harvested and washed four times with ice-cold PBS. Radioactivity was measured using a gamma counter.

[2] = system: Baf-3 cells; experiment: Test of mutant htk2 reporter genes in Baf-3 cells; format: cell-based
Excerpt: The sensitivity of the described mutant htk2 imaging reporter genes can be evaluated through cell culture assays and PET imaging in mouse tumor models. […] Further tests regarding the effect of expressing these reporter genes on various cells can be used to determine other potential targets. […] Several enhanced htk2 mutant reporter genes have been designed and tested. Though the examples herein describe different probes and investigate the L probes mainly in mice, other mammals and in particular, humans are also within the scope of the invention. Silico models can be used to derive additional enhanced mutants from human htk2.

[3] = system: L1210 tumors expressing TK2-N93D/L109F; experiment: microPET/CT of SCID mice bearing L1210-PRG tumors (TK2-N93D/L109F); format: in vivo
Description: (§1) Animal studies were approved and carried out according to specific guidelines. C57/BL6 mice were injected with the indicated probe and underwent micro-PET/CT analyses at 1- and 3-h post probe injection (Inveon, Siemens Medical Solutions USA Inc.; microCAT; Imtek Inc.). For tumor imaging studies, SCID mice were injected subcutaneously on day −7 in the right and left flanks with 1×10^6 L1210-PRG-expressing cells in 50% v/v phosphate-buffered saline and 50% v/v Matrigel™ (BD Biosciences). For imaging experiments, mice were kept warm and under gas anesthesia (2% v/v isoflurane) and were injected intravenously with 200 μCi of ^18F-labeled probes. A 3-h interval was allowed between probe administration and microPET/CT scanning Static microPET images were acquired for 600 s. Image data were evaluated in three-dimensional histograms and reconstructed with a zoom factor of 2.1 using three-dimensional ordered set expectation maximization (OSEM) with 2 iterations followed by MAP (maximum a posteriori) reconstruction with 18 iterations (beta=0.1). Images were analyzed using OsiriX Imaging Software Version 3.8.
Mice implanted with L1210 cells expressing TK2-based PRGs were scanned by microPET/CT using L-^18F-FMAU (FIG. 30A). For comparison, mice implanted with L1210 cells expressing HSV1-sr39tk were scanned by microPET/CT using ^18F-FHBG (FIG. 30B).

[4] = system: L1210 tumors expressing TK2-N93D; experiment: microPET/CT of SCID mice bearing L1210-PRG tumors (TK2-N93D); format: in vivo; details: for in vivo L-18F-FMAU uptake compared with WT TK2-expressing tumors: 3 h post-injection
Excerpt: To compare TK2, TK2-N93D and HSV1-sr39tk in vivo, PRG-expressing L1210 cells were implanted subcutaneously in SCID mice that were then scanned with L-[^18F]FMAU (FIG. 10A) and [^18F]FHBG (FIG. 10C) on consecutive days. […] Signals obtained with sr39tk were slightly higher than those obtained with the human TK2-N93D PRG (the difference was not statistically significant). […] L-[^18F]FMAU accumulation in TK2-N93D transduced tumors was ˜20 times higher than the accumulation in tumors transduced with the control (eYFP only) vector. While this ratio is higher than the 6.67 ratio reported for WT TK2 as a PRG with D-[^18F]FEAU as the PRP (see, e.g. Ponomarev, V., et al. J Nucl Med 48:819-826, 2007), the HSV1-sr39tk/[^18F]FHBG combination still outperforms the TK2-N93D/L-[^18F]FMAU combination by ˜2-fold. The significance of the 2-fold difference for the sensitivity of the new TK2-N93D PRG can be further investigated in the animal models discussed below (see, e.g. Gerth, M. L., et al. Biochem Biophys Res Commun 354:802-807, 2007; Liu, L., et al. Nucleic Acids Res 37:4472-4481, 2009; Iyidogan, P., et al. Biochemistry 47:4711-4720, 2008; Lutz, S., et al. Chimia (Aarau) 63:737-744 2009).
as §1

[5] = Biodistribution of PET reporter probes in mice (microPET/CT); format: in vivo, C57/BL6 mice
Description: To identify candidate PRPs, eight nucleoside analogs (FIG. 7A) were synthesized that were amenable to ^18F labeling (the first criterion for PRPs). To identify PRP candidates with rapid clearance from normal tissues and low overall background (second criterion for PRGs), biodistribution studies in mice were performed. It was observed that natural (D) nucleosides had higher background than non-natural (L) nucleoside analogs. […] The next step was to identify a human nucleoside kinase that phosphorylates L-[^18F]FMAU and L-[^18F]FEAU, and can be converted into a new PRG that matches four criteria:
Initially, a group of nucleoside analogs amenable to fluorine-18 labeling were identified. These PET tracers, 5 of which were novel, were then screened to determine their biodistribution in C57/BL6 mice (n=3 for each PET tracer) through dynamic microPET scans. […] Rational design is utilized to introduce mutations into human nucleoside kinase thymidine kinase 2 (TK2) to improve the affinity of the kinase for the top candidate probe. The sensitivity and specificity of the novel PET reporter probe/gene pair was then determined in vitro and in vivo using a murine cancer model.
as §1

With `Cc1cn([C@H]2O[C@@H](CO)[C@H](O)[C@H]2[18F])c(=O)[nH]c1=O` [L-^18F-FMAU, 2′-deoxy-2′-^18F-5-methyl-1-β-L-arabinofuranosyluracil] the “L-18F-FMAU uptake as percentage of the corresponding uptake for TK2-N93D/L109F” value [1] was 31%, the “decrease of L-18F-FMAU uptake” value [1] was 37% and the “test of reporter system with probe” value [2] was “successfully tested”. For the same compound, the “probe uptake in L1210 tumors” value ([3]; L-18F-FMAU, 3 h post-injection) was 19.9±1.5 % injected dose/g, the “L-18F-FMAU uptake, higher than that of TK2-N93D-expressing cells” value ([3]; in vivo, FIG. 30C) was 2.6 fold and the “in vivo L-18F-FMAU uptake compared with WT TK2-expressing tumors” value [4] was “nearly double”. For the same compound, the “in vivo L-18F-FMAU uptake compared with WT TK2-expressing tumors” value ([4]; listed as 18F-L-FMAU) was “two-fold increase”, the “in vivo L-18F-FMAU uptake compared with WT TK2-expressing tumors” value ([4]; listed as L-[^18F]FMAU) was “improved accumulation” and the “L-[18F]FMAU accumulation relative to tumors transduced with control (eYFP only) vector” value ([4]; 3 hrs post-injection) was about 20 times. For the same compound, the “accumulation in the liver” value ([5]; 1-h post injection (data not shown)) was “accumulates in the liver”, the “accumulation in the liver” value ([5]; 3-h time point) was “neither probe showed any accumulation” and the “accumulation in the gallbladder” value ([5]; 3 h after administration) was 1.68±0.46 % injected dose/g. For the same compound, the “retention in the thoracic cavity” value ([5]; 3 h after administration) was “very low retention”, the “signals in the GI tract” value ([5]; 3 h after administration) was “only detected in the lower GI tract” and the “overall background (biodistribution)” value ([5]; candidate 18F nucleoside analog probes in mice, FIG. 7B) was “lowest overall background”. For the same compound, the “non-specific GI signals” value ([5]; increasing uptake time from 1 to 3 hours) was “almost completely eliminated” and the “GI activity compared with 18F-FHBG-injected mice” value ([5]; mice) was “significantly less intense”.
